Where two headings read alike, the source gives them in different places.
Experiments:
Test in all cases: NCI-60 screening, one-dose (10 µM) and five-dose, SRB
SK-MEL-2 = type: cell-based, human; details: Homo sapiens; 10 μM; SK-MEL-2, Melanoma; read-out: Growth percentage
OVCAR-4 = type: cell-based, human; details: Homo sapiens; 10 μM; OVCAR-4, Ovarian Cancer; read-out: Growth percentage
OVCAR-5 = type: cell-based, human; details: 10 μM; OVCAR-5, Ovarian Cancer
HCC-2998 = type: cell-based, human; details: Homo sapiens; 10 μM; HCC-2998, Colon Cancer; read-out: Growth percentage
KM12 = type: cell-based, human; details: Homo sapiens, KM12, 10 μM; KM12, Colon Cancer; read-out: Growth percentage
ACHN = type: cell-based, human; details: Homo sapiens, 10 μM, Renal Cancer, read-out: Growth percentage
SF-268 = type: cell-based, human; details: Homo sapiens; 10 μM; SF-268, CNS Cancer; read-out: Growth percentage
EKVX = type: cell-based, human; details: Homo sapiens, 10 μM, Non-Small-Cell Lung Cancer, read-out: Growth percentage
SNB-75 = type: cell-based, human; details: Homo sapiens; 10 μM; SNB-75, CNS Cancer; read-out: Growth percentage
LOX IMVI = type: cell-based, human; details: Homo sapiens, 10 μM, Melanoma, read-out: Growth percentage
HS 578T = type: cell-based, human; details: Homo sapiens, 10 μM, Breast Cancer, read-out: Growth percentage
K-562 = type: cell-based, human; details: Homo sapiens, K562, 10 μM; K-562, Leukemia; read-out: Growth percentage
NCI-H226 = type: cell-based, human; details: Homo sapiens; 10 μM; NCI-H226, Non-Small-Cell Lung Cancer; read-out: Growth percentage
COLO 205 = type: cell-based, human; details: Homo sapiens; 10 μM; COLO 205, Colon Cancer; read-out: Growth percentage
CAKI-1 = type: cell-based; details: Homo sapiens; 10 μM; CAKI-1, Renal Cancer; read-out: Growth percentage
SF-539 = type: cell-based, human; details: Homo sapiens, SF-539, 10 μM; SF-539, CNS Cancer; read-out: Growth percentage
A498 = type: cell-based; details: Homo sapiens
TK-10 = type: cell-based, human; details: Homo sapiens; 10 μM; TK-10, Renal Cancer; read-out: Growth percentage
SF-295 = type: cell-based, human; details: Homo sapiens; 10 μM; SF-295, CNS Cancer; read-out: Growth percentage
SK-MEL-28 = type: cell-based, human; details: Homo sapiens; 10 μM; SK-MEL-28, Melanoma; read-out: Growth percentage
BT-549 = type: cell-based; details: Homo sapiens
SK-MEL-5 = type: cell-based, human; details: Homo sapiens; 10 μM; SK-MEL-5, Melanoma; read-out: Growth percentage
NCI-H522 = type: cell-based, human; details: Homo sapiens; 10 μM; NCI-H522, Non-Small-Cell Lung Cancer; read-out: Growth percentage
MDA-MB231/ATCC = type: cell-based; details: 10 μM; MDA-MB231/ATCC, Breast Cancer
HOP-92 = type: cell-based, human; details: Homo sapiens; 10 μM; HOP-92, Non-Small-Cell Lung Cancer; read-out: Growth percentage
OVCAR-3 = type: cell-based; details: Homo sapiens; 10 μM; OVCAR-3, Ovarian Cancer; read-out: Growth percentage
MDA-MB-435 = type: cell-based; details: Homo sapiens, MDA-MB-435, read-out: Growth percentage, 10 μM; MDA-MB-435, Melanoma
SNB-19 = type: cell-based; details: Homo sapiens; 10 μM; SNB-19, CNS Cancer; read-out: Growth percentage
HCT-15 = type: cell-based, human; details: Homo sapiens; 10 μM; HCT-15, Colon Cancer; read-out: Growth percentage
DU-145 = type: cell-based, human; details: Homo sapiens; 10 μM; DU-145, Prostate Cancer; read-out: Growth percentage
CCRF-CEM = type: cell-based, human; details: Homo sapiens, 10 μM, Leukemia, read-out: Growth percentage
[1] = 10 μM, BT-549, Breast Cancer, read-out: Growth percentage
[2] = A498, 10 μM, A498, Renal Cancer, read-out: Growth percentage

SMILES | activity at 10 µM (SK-MEL-2) | activity at 10 µM (OVCAR-4) | Growth percentage (OVCAR-5) | activity at 10 µM (HCC-2998) | activity at 10 µM (KM12) | activity at 10 µM (ACHN) | activity at 10 µM (SF-268) | activity at 10 µM (EKVX) | activity at 10 µM (SNB-75) | activity at 10 µM (LOX IMVI) | activity at 10 µM (HS 578T) | activity at 10 µM (K-562) | activity at 10 µM (NCI-H226) | activity at 10 µM (COLO 205) | activity at 10 µM (CAKI-1) | activity at 10 µM (SF-539) | activity at 10 µM (TK-10) | activity at 10 µM (SF-295) | activity at 10 µM (SK-MEL-28) | activity at 10 µM (SK-MEL-5) | further results
Cc1nc(SCC(=O)N2CCN(c3cc4c(cc3F)c(=O)c(C(=O)O)cn4C3CC3)CC2)sc1C(=O)/C=C/c1ccc(F)cc1 [Compound 4e, (E)-1-Cyclopropyl-6-fluoro-7-(4-(2-((5-(3-(4-fluorophenyl)acryloyl)-4-methylthiazol-2-yl)thio)acetyl)piperazin-1-yl)-4-oxo-1,4-dihydroquinoline-3-carboxylic Acid] | 104% | 102% | 119.2% | 107% | 97.3% | 98.9% | 111% | 108% | 103% | 91.2% | 105% | 98.2% | 98.3% | 119% | 97.4% | 99% | 103% | 98.8% | 116% | 99.9% | activity at 10 µM (A498; A498, read-out: Growth percentage): 106%; activity at 10 µM (BT-549; [1]): 102%; activity at 10 µM (NCI-H522): 98.2%; Growth percentage (MDA-MB231/ATCC): 101.1%; activity at 10 µM (HOP-92): 98%; activity at 10 µM (OVCAR-3): 116%; activity at 10 µM (MDA-MB-435): 104%; activity at 10 µM (SNB-19): 101%; activity at 10 µM (HCT-15): 96.8%; activity at 10 µM (DU-145): 105%; activity at 10 µM (CCRF-CEM): 104%
Cc1nc(SCC(=O)N2CCN(c3cc4c(cc3F)c(=O)c(C(=O)O)cn4C3CC3)CC2)sc1C(=O)/C=C/c1ccc(Br)cc1 [Compound 4f, (E)-7-(4-(2-((5-(3-(4-Bromophenyl)acryloyl)-4-methylthiazol-2-yl)thio)acetyl)piperazin-1-yl)-1-cyclopropyl-6-fluoro-4-oxo-1,4-dihydroquinoline-3-carboxylic Acid] | 105% | 102% | 110.6% | 115% | 108% | 107% | 116% | 107% | 65.7% | 90.5% | 99.6% | 96.2% | 107% | 112% | 101% | 89.9% | 108% | 108% | 114% | 101% | activity at 10 µM (A498; [2]): 114%; activity at 10 µM (BT-549; BT-549, read-out: Growth percentage): 107%; activity at 10 µM (NCI-H522): 105%; Growth percentage (MDA-MB231/ATCC): 98.6%; activity at 10 µM (HOP-92): 115%; activity at 10 µM (OVCAR-3): 170%; activity at 10 µM (MDA-MB-435): 107%; activity at 10 µM (SNB-19): 93.8%; activity at 10 µM (HCT-15): 106%; activity at 10 µM (DU-145): 113%; activity at 10 µM (CCRF-CEM): 106%
Cc1nc(SCC(=O)N2CCN(c3cc4c(cc3F)c(=O)c(C(=O)O)cn4C3CC3)CC2)sc1C(=O)/C=C/c1cccc([N+](=O)[O-])c1 [Compound 4g, (E)-1-Cyclopropyl-6-fluoro-7-(4-(2-((4-methyl-5-(3-(3-nitrophenyl)acryloyl)thiazol-2-yl)thio)acetyl)piperazin-1-yl)-4-oxo-1,4-dihydroquinoline-3-carboxylic Acid] | 68.9% | 103% | 119.9% | 50.3% | 21.7% | 110% | 172% | 111% | 95.7% | 34.2% | 99.1% | 29.3% | 102% | 90.5% | 92.6% | 64.5% | 109% | 110% | 80.8% | 81.7% | activity at 10 µM (A498; [2]): 129%; activity at 10 µM (BT-549; [1]): 66.9%; activity at 10 µM (NCI-H522): 72.3%; Growth percentage (MDA-MB231/ATCC): 92.4%; activity at 10 µM (HOP-92): 68.4%; activity at 10 µM (OVCAR-3): 163%; activity at 10 µM (MDA-MB-435): 71.9%; activity at 10 µM (SNB-19): 87.7%; activity at 10 µM (HCT-15): 71.7%; activity at 10 µM (DU-145): 108%; activity at 10 µM (CCRF-CEM): 74.5%
Cc1nc(SCC(=O)N2CCN(c3cc4c(cc3F)c(=O)c(C(=O)O)cn4C3CC3)CC2)sc1C(=O)/C=C/c1ccc([N+](=O)[O-])cc1 [Compound 4h, (E)-1-Cyclopropyl-6-fluoro-7-(4-(2-((4-methyl-5-(3-(4-nitrophenyl)acryloyl)thiazol-2-yl)thio)acetyl)piperazin-1-yl)-4-oxo-1,4-dihydroquinoline-3-carboxylic Acid] | 87.7% | 89.2% | 121.1% | 71.9% | 54.4% | 96.7% | 81.1% | 113% | 91.2% | 28.3% | 99.6% | 28.9% | 87.9% | 95.9% | 116% | 67.9% | 116% | 116% | 60% | 83.5% | activity at 10 µM (A498; [2]): 125%; activity at 10 µM (BT-549; [1]): 83.9%; activity at 10 µM (NCI-H522): 27.9%; Growth percentage (MDA-MB231/ATCC): 94.5%; activity at 10 µM (HOP-92): 126%; activity at 10 µM (OVCAR-3): 49.4%; activity at 10 µM (MDA-MB-435): 88.4%; activity at 10 µM (SNB-19): 72.2%; activity at 10 µM (HCT-15): 62.3%; activity at 10 µM (DU-145): 85.3%; activity at 10 µM (CCRF-CEM): 45.7%

From paper PMC12655637, “Design, Synthesis, and Mechanistic Study of Novel Ciprofloxacin/Thiazole Chalcone Hybrids as Potential Anticancer Agents” (Pharmaceuticals, 2025)
